According to patent US7582786B2, “Synthetic catalytic free radical scavengers useful as antioxidants for prevention and therapy of disease” (Eukarion Inc., priority 1996, dated 2009):

Legend:
[1] = SOD activity, xanthine/xanthine oxidase with cytochrome C as acceptor (Example 2); type: biochemical; conditions: relative to C7 (C7 = 100)
Protocol: Superoxide dismutase (SOD) activity was assayed by following the inhibition of the reduction of an electron acceptor molecule in the presence of the free-radical generating system xanthine/xanthine oxidase (McCord et al. (1973) Superoxide and Superoxide Dismutase in “Oxidases and Related Redox Systems, vol. I, King et al. eds., University Park press, Baltimore, pp. 51-76). The assay mixture consisted of 50 mM sodium phosphate, pH 7.8, 120 μM xanthine, 0.2 units/ml xanthine oxidase, with acceptor molecule and salen manganese compound, as indicated. Assays were conducted at 27±0.2° C. using a water-jacketed cell holder in a Beckman DU7400 spectrophotometer. In most cases, oxidized cytochrome c, at 0.13 mg/ml, was employed as acceptor and its reduction was monitored spectrophotometrically at 550 nm. In some experiments, nitroblue tetrazolium (NBT), at 80 μM, was substituted for cytochrome c as the acceptor. NBT reduction was also monitored at 550 nm. An estimated extinction coefficient for NBT reduction, 20,800 M^−1cm^−1, determined empirically by exhaustive reduction of NBT in the reaction mixture described above, was employed where indicated. […] Conversion of xanthine to urate was calculated using ε290's of […] for urate and 4050 M^−1cm^−1 for xanthine. […] For each compound, at least four different concentrations were tested in duplicate.

[2] = test system: Human dermal fibroblasts (HF cells); assay: Cell protection assay, glucose/glucose oxidase toxicity, XTT; type: cell-based
Protocol: (§1) Human dermal fibroblasts (HF cells) were obtained from the American type tissue Culture Collection at passage 1 and cultured and propagated in a medium (HF medium) consisting of Dulbecco's Modified Eagle's Medium with 4.5 g/l D-glucose, 10% calf serum 4 mM glutamine, 50 units/ml penicillin, and 50 μg/ml streptomycin in a 37° C. humidified incubator equilibrated with 5% CO2. Cells were used at passages 5 or 6 for experiments. For cell protection assays, HF cells were seeded at a density of about 15,000 cells per cm2 onto 96-well culture plates and allowed to grow to confluence. To assess protection tert-butylhydroperoxide (t-BHP) toxicity, confluent cell layers were first treated with the indicated concentrations of test compounds dissolved in HF medium for 18 hr. The medium was then replaced with fresh medium containing test compounds and 0.5 mM tert-butylhydroperoxide (t-BHP) and cells were incubated for another 18 hr. The medium was then removed and replaced with fresh HF medium (100 μl per well) without test compounds or t-BHP. Fifty μl of XTT reagent (Boeringer Mannheim, Inc.), prepared as described by the manufacturer, was then added to each well and the plates returned to the incubator. After 2 hr., the absorbance at 490 nm was measured in a BioRad (Richmond, Calif.) Model 3550 plate-reader, using a reference wavelength of 655 nm. Control cells that had not been exposed to test compounds or toxic agents were included among the samples treated with XTT reagent. Absorbance measurements for blank wells, containing HF medium and XTT reagent but no cells, were also determined. To analyze protection from glucose/glucose oxidase toxicity, confluent cell layers were incubated with HF medium containing glucose oxidase (0.019 units/ml) along with test compounds, as indicated, for 18 hr in the tissue culture incubator. Fresh HF medium was then added and cell viability assessed using the XTT reagent as described above. For both these models, concentrations of toxic agents were selected that were reproducibly completely lethal. Cytotoxicity assessments were routinely confirmed by visual inspection of the cell layers prior to addition of the XTT reagent.
(§2) Catalase and peroxidase activities were assayed as described in Example 2. Catalase assays contained 10 μM salen-manganese complex and 10 mM hydrogen peroxide. Peroxidase assays contained 10 μM salen-manganese complex and 0.2 mM hydrogen peroxide. Glucose-glucose oxidase toxicity assays were performed using human dermal fibroblasts as described in Example 2.

[3] = test system: Human dermal fibroblasts (HF cells); assay: Cell protection assay, tert-butylhydroperoxide (t-BHP) toxicity, XTT; type: cell-based; conditions: for Cell viability, absorbance at 490 nm uncorrected for blank: t-BHP 0.5 mM
Protocol: as §1

[4] = Catalase activity, conversion of H2O2 to oxygen, polarographic oxygen electrode (Example 2); type: biochemical
Protocol: Catalase activity was assayed by monitoring the conversion of H2O2 to oxygen using a Clark-type polarographic oxygen electrode. The apparatus consisted of a Mini Clark Style electrode, a 600 μl Oxygen Uptake Chamber, and a Chemical Microsensor system, all obtained from Diamond General Corporation (Ann Arbor, Mich.). The electrode was calibrated by immersion in nitrogen- or air-equilibrated buffers using a Dual Chamber Calibration Cell (Diamond General,. Corp.). Catalase reaction mixtures consisted of 50 mM sodium phosphate, pH 8.1, 0.9% sodium chloride, and salen manganese complex and H2O2 at the indicated concentrations. The temperature of the water-jacketed reaction chamber, as well as the calibration buffers, was maintained at 25±0.1° C. Data were collected at 1 sec intervals and stored-on a MacIntosh II computer using data acquisition hardware and software by Strawberry Tree, Inc. (Sunnyvale, Calif.). Dissolved oxygen concentrations were calculated as described previously (Del Rio et al. (1977) Anal. Biochem. 80: 409) based on a value of 2.5×10^−4 M oxygen for air-saturated buffer at 25° C. Linearity of the dissolved oxygen measurements within the experimental range was continued by determining the amount of oxygen generated from known quantities of H2O2 during exhaustive treatment with bovine liver catalase. Stock solutions of H2O2 were prepared by diluting a commercial 30% H2O2 solution in water and the H2O2 concentrations in these stocks were determined by absorbance at 240 nm, using a molar extinction coefficient of 44 (Stadtman, E R. et al. (1990) Proc. Natl. Acad. Sci. USA 87: 384). […] In the absence of salen manganese complex, H2O2 alone typically produced an early, relatively slow increase in signal. The slope of this increased signal was not proportional to H2O2 concentration (for example in one experiment, 1 and 10 Mm H2O2 yielded apparent rates of 12 and 14 μM oxygen per min, respectively) and may be due to an electrode artifact. […] Where presented, initial rates were calculated by determining the slope of the linear portion of time dependent plots of oxygen generation, usually comprising the first five seconds of the reaction. Unless otherwise indicated, these were corrected by subtracting the rate obtained with H2O2 alone. Where presented, endpoint oxygen generated was calculated from time-dependent plots, such as those shown in FIG. 14, as the difference between the baseline oxygen concentration immediately prior to substrate addition and the maximal oxygen concentration achieved during the course of the reaction. All reactions subjected to these calculations were run for a sufficient time to ensure that oxygen generation had ceased.
as §2

[5] = Peroxidase activity, H2O2-dependent oxidation of ABTS (Example 2); type: biochemical; conditions: for Peroxidase rate: 10 μM salen manganese complex, 0.2 mM H2O2; for Peroxidase: relative to C7 (C7 = 100)
Protocol: (§3) Peroxidase activity was assayed by monitoring the hydrogen peroxide-dependent oxidation of 2,2′-azino-bis(3-ethylbenzthiazoline-6) sulfonic acid (ABTS) spectrophotometrically. Standard assay mixtures consisted of 50 mM sodium phosphate, pH 8.1, 0.9% sodium chloride, 0.5 mM ABTS, and H2O2 and salen manganese complex as indicated. Where indicated, 50 mM sodium phosphate buffers of pH 6.0 or pH 7.1 were substituted. Assays were conducted at 27±0.2° C. ABTS oxidation was monitored at 740 or 500 nm to eliminate interference by the salen manganese complexes, many of which absorb in the vicinity of the λmax of oxidized ABTS, and to avoid absorbance values that exceeded the linear range of the spectrophotometer. The amount of oxidized ABTS was estimated using an Δε740 of 20,300 M^−1cm^−1 or an Δε500 of 3400 M^−1cm^−1 calculated based upon the published molar extinction coefficient oat 405 nm (36,800).
as §2

brain homogenates = assay: Iron-induced lipid peroxidation in brain homogenates (MDA); type: biochemical, rat
Protocol: Lipid peroxidation was induced by incubating a mixture consisting of 0.25 ml homogenate, 0.25 ml ASCF with test compounds, and 10 μM FeCl2 for 1 hr at 35° C. under an atmosphere equilibrated with O2:CO2(95:5). Following the incubation, 0.1 ml of the sample was extracted with trichloroacetic acid and analyzed for thiobarbituric acid reactive material as described previously, using authentic malonyldialdehyde (MDA) as a standard.

[6] = Peroxidase activity with t-BHP as substrate, ABTS oxidation; type: biochemical; conditions: 1 mM t-BHP
Protocol: as §3
(In comparison, horseradish peroxidase utilized t-BHP with an ABTS oxidation rate that was about 5.4% of the rate with H2O2).

[7] = 10 μM salen manganese complex, 10 mM H2O2

| Compound | SOD [1] | Cell viability, absorbance at 490 nm uncorrected for blank ([3]; 2.5 μM) | Cell viability, absorbance at 490 nm uncorrected for blank ([3]; 5 μM) | Cell viability, absorbance at 490 nm uncorrected for blank ([3]; 10 μM) | Cell viability, absorbance at 490 nm uncorrected for blank ([3]; 20 μM) | Cell viability, absorbance at 490 nm uncorrected for blank ([3]; 40 μM) | Cell viability, absorbance at 490 nm uncorrected for blank ([3]; 80 μM) | Catalase rate [4, 7] | Endpoint [4, 7] | Catalase endpt. ([4]; relative to C7 (C7 = 100)) | Catalase rate ([4]; relative to C7 (C7 = 100)) | Peroxidase rate [5] | Peroxidase [5] | protection against glucose and glucose oxidase (in words) [2] | MDA levels, percent of control (brain homogenates; 1 μM) | MDA levels, percent of control (brain homogenates; 5 μM) | MDA levels, percent of control (brain homogenates; 10 μM) | MDA levels, percent of control (brain homogenates; 25 μM) | also measured |
| --- | --- | --- | --- | --- | --- | --- | --- | --- | --- | --- | --- | --- | --- | --- | --- | --- | --- | --- | --- |
| COc1ccc2c(c1)C=NCCN=Cc1cc(OC)ccc1[O][Mn]([Cl])[O]2 [Compound C41] | 114 | 0.28 ± 0.01 | 0.28 ± 0.01 | 1.37 ± 0.01 | 1.44 ± 0.04 | 1.35 ± 0.06 | 1.07 ± 0.03 | 172.2 ± 2.2 μM O2/min | 83.5 ± 0.9 maximal μM O2 | 311 | 120 | 23.4 ± 2.6 μM ABTS oxidized/min | 136 | – | – | – | – | – | protection against glucose and glucose oxidase ([2]; 80 μM, glucose oxidase 0.019 units/ml): highly protective; toxicity of compound alone ([3]; 80 μM, without t-BHP): equivalent toxicity with or without t-BHP; turnovers before the catalase reaction ceased ([4]; 10 μM complex, 10 mM H2O2): about 16 turnovers |
| CC(=O)[O][Mn]1[O]c2ccccc2C=NCCN=Cc2ccccc2[O]1 [Compound C31] | 101 | 0.28 ± 0.01 | 1.25 ± 0.09 | 1.41 ± 0.08 | 1.40 ± 0.06 | 1.30 ± 0.03 | 1.16 ± 0.09 | 131.9 ± 12.9 μM O2/min | 29.6 ± 0.5 maximal μM O2 | 81 | 92 | 21.3 ± 0.5 μM ABTS oxidized/min | 114 | about equally as effective as C7 | 108% | 22% | 6% | 0% | synergistic toxicity with t-BHP ([3]; 80 μM): possible synergistic toxicity |
| COc1ccc2c(c1)[O][Mn]([Cl])[O]c1cc(OC)ccc1C=NCCN=C2 [Compound C34] | 70 | 0.27 ± 0.01 | 0.27 ± 0.01 | 1.20 ± 0.12 | 1.46 ± 0.08 | 1.48 ± 0.08 | 1.54 ± 0.08 | 66.4 ± 13.9 μM O2/min | 11.9 ± 0.2 maximal μM O2 | 44 | 46 | 0.8 ± 0.2 μM ABTS oxidized/min | 4 | about equally as effective as C7 | 97% | 30% | 12% | 6% | – |
| horseradish peroxidase | – | – | – | – | – | – | – | – | – | – | – | – | – | – | – | – | – | – | ABTS oxidation rate with t-BHP, percent of rate with H2O2 [6]: about 5.4%; rate of ABTS oxidation ([5]; 13.2 units/ml, pH 8.1, 1 mM H2O2): 99.3 µM/min |
| COc1ccc2c(c1)[O][Mn]([O]C(C)=O)[O]c1cc(OC)ccc1C=NCCN=C2 [Compound C33] | 68 | 0.27 ± 0.01 | 0.27 ± 0.01 | 1.35 ± 0.08 | 1.44 ± 0.08 | 1.50 ± 0.11 | 1.36 ± 0.02 | 53.9 ± 8.7 μM O2/min | 12.6 ± 1.3 maximal μM O2 | 44 | 38 | 0.8 ± 0.2 μM ABTS oxidized/min | 4 | about equally as effective as C7 | 98% | 38% | 16% | 7% | – |
